Measurements taken from US9382224B2, “7-acyloxychromen-4-one derivatives and the use thereof as self-tanning substances” (MERCK PATENT GMBH, priority 2011, dated 2016).

Legend:
[1] = test system: tissue samples taken from the stomach tissue of a person; assay: Ex vivo study on the promotion of melanogenesis: chromatometry of tissue samples; assay type: cell-based, human; details: for % L: D10 versus D0
Experimental: (§1) The tissue samples having a diameter of 10 mm are taken from the stomach tissue of a person and stored in BEM medium at 37° C. in a moist atmosphere having a CO2 content of 5%. The tissue samples are employed in accordance with the following test plan:
(§2) 30 μl of test solution are placed on a filter paper and immediately laid on the tissue sample.
(§3) The irradiations are carried out daily before treatment of the tissue samples with test solutions. An RMX 3W Vilbert Lourmat instrument is used. The UV dose is 1.04 J/cm2 comprising 6/8% of UVB.
The colour coordinates of the tissue samples are determined by means of a Minolta CM 2600d chromatometer.

[2] = test system: melanocytes and keratinocytes of tissue samples taken from the stomach tissue of a person; assay: Ex vivo study on the promotion of melanogenesis: histological analysis, melanin visualisation; assay type: cell-based, human; details: for activity of the melanocytes / melanin content in basal keratinocytes / melanin content in suprabasal keratinocytes / melanin in basal keratinocytes: treatment for 10 days
Experimental: as §1, §2, §3
On the first day (D0), 3 untreated tissue samples are halved, and in each case one half is fixed in buffered formalin solution. The respective other halves are frozen at −80° C.
After fixing for 24 hours in buffered formalin solution, the samples are dehydrated in a Leica TP1010 automatic dryer and impregnated with paraffin. After embedding with the aid of a Leica EG1160 station, 5 μm thin cross sections are produced from the samples using a Leica RM 2125 Minot-type microtome.
The cross sections are mounted on Superfrost Plus specimen slides made from silanised glass. The light-microscopy analysis is carried out by means of a Leica Orthoplan microscope with 25-times magnification in order to assess the general morphology or 40-times magnification in order to visualise the melanin.
The melanin visualisation is carried out after impregnation of the paraffinised cross-sections with silver in accordance with Masson in the Fontana variant.

[3] = with UV irradiation, after 10 days
[4] = without UV irradiation, after 10 days

Row | SMILES | tanning activity in the ex vivo experiment [1] | activity indicated by chromatometric analysis ([1]; with UV irradiation) | L ([1]; with UV irradiation, D0) | L ([1]; with UV irradiation, D10) | % L ([1]; with UV irradiation) | change in the L parameter (in words) [1, 3] | activity indicated by chromatometric analysis ([1]; without UV irradiation) | L ([1]; without UV irradiation, D0) | L ([1]; without UV irradiation, D10) | % L ([1]; without UV irradiation) | increase in the L parameter [1, 4] | activity of the melanocytes ([2]; with UV irradiation) | melanin content in basal keratinocytes ([2]; with UV irradiation) | melanin content in suprabasal keratinocytes ([2]; with UV irradiation) | activity of the melanocytes ([2]; without UV irradiation) | melanin content in suprabasal keratinocytes ([2]; without UV irradiation) | melanin in basal keratinocytes ([2]; without UV irradiation) | light/dark parameter L drops by [1, 3] | decrease in the L parameter [1, 4] | increase of the area of the basal layer occupied by melanin ([2]; without UV irradiation, compared with the untreated control)
1 | CC(=O)c1cc(O)c2c(=O)cc(C)oc2c1 [5-hydroxy-7-acetyl-2-methylchromen-4-one] | no tanning activity | skin-lightening activity | 63.66 | 64.87 | 1.9% | increase in the L parameter | skin-lightening activity | 62.19 | 63.98 | 2.9% | 2.9% | low activity | moderate | low | very low activity | low | moderate |  |  | 
2 | COc1cc(O)c2c(=O)cc(C)oc2c1 [5-hydroxy-7-methoxy-2-methylchromen-4-one] |  | skin-lightening activity | 63.63 | 64.60 | 1.5% | increase in the L parameter | skin-lightening activity | 61.50 | 64.64 | 5.1% |  | very low activity | moderate | low | very low activity | low | moderate |  |  | 
3 | CCCCCCCCCCCCCCCC(=O)Oc1cc(O)c2c(=O)cc(C)oc2c1 [compound Ia, 5-hydroxy-2-methyl-4-oxo-4H-chromen-7-yl hexadecanoate] |  | clear pro-pigmenting activity | 64.07 | 61.52 | −4% |  | pro-pigmenting activity | 64.53 | 61.24 | −5.1% |  | high degree of activity | high | moderate | very high activity | moderate | readily detectable | 4.0% | 5.1% | 43%
